Laboratory results taken from US20240358748A1, “AMORPHOUS DISPERSION OF FERRIC MALTOL AND THE PREPARATION PROCESS THEREOF” (Indena S.P.A., priority 2021, published 2024).

Test: Accelerated stability study (solid form checked by X-ray powder diffraction)
Assay type: physicochemical
Details: after 12 days at room temperature and relative humidity of 75%±5%
Description: The X-ray diffraction pattern was recorded on a Bruker D2-Phaser diffractometer. The X-ray generator was set to 30 kV and 10 mA, using Cuk as radiation source. The sample was prepared in a sample holder and irradiated for an irradiation length of 10 mm. The data were recorded between 2 and 50 2θ degrees every 0.02 2θ degrees, with a recording time of 3 seconds per 2θ degree.
The amorphous solid dispersion prepared according to Example 1, and ferric maltol in amorphous form, prepared according to the procedure reported in Example 1 but without the addition of Soluplus®, underwent an accelerated stability study.

**Q.** Which “solid form after storage (X-ray diffractogram)” value does the source give for `Cc1occc(=O)c1[O-].Cc1occc(=O)c1[O-].Cc1occc(=O)c1[O-].[Fe+3]` [ferric maltol in amorphous form, 3-hydroxy-2-methyl-4H-pyran-4-one: iron (III) (3:1)] here?
**A.** The value was “attributable to ferric maltol Form I”.

**Q.** And the “solid form after storage (X-ray diffractogram)” value (listed as ferric maltol)?
**A.** Its value is “tends to be converted, at least partly, to a crystalline structure”.
